What is called IC50 is the concentration that gives 50% inhibition.

For the assay, the system named is 8XTBD luciferase reporter. Briefly: YAP Reporter Assay. Format: cell-based. The following applies: Homo sapiens, HEK-293T; HEK293T cells stably transfected with 8XTBD luciferase reporter and pRLTK; 24-hr incubation; starting from 3 μM, 1:3 dilution, 10 points; read-out: Firefly Luciferase IC50. The method, then:
HEK293T cells stably transfected with 8XTBD luciferase reporter and pRLTK in 384-well plates were treated with the test compounds, starting from 3 μM (final concentration in assay plate), 1:3 dilution, and 10 points in quadruplicates. Post 24-hr incubation with compounds at 37° C. and 5% CO2, cells were lysed and 8XTBD-driven firefly luciferase and control TK-driven renilla luciferase activities were measured using Promega Dual-Luciferase Reporter Assay System.
Reagents: The reagents used for this study are: DMEM: Invitrogen #11960077, Dual-Glo Luciferase Assay System: Promega-E2980, Puromycin Dihydrochloride: Invitrogen-A1113803, 384-well plate: PerkinElmer-6007480, L-GLUTAMINE: Invitrogen-25030164, Hygromycin B: Invitrogen-10687010, and Penicillin-Streptomycin: Merk-TMS-AB2-C
Media: The media used for this assay were: Culture Medium: DMEM+1 ug/mL puromycin+200 ug/mL hygromycin (with 10% FBS+1 mM L-glutamine); and Assay Medium: DMEM (with 10% FBS+1 mM L-glutamine+1×P/S).
Cell Plating: The appropriate media was warmed at 37° C. by water bath: Culture Medium, Assay Medium, 1* D-PBS, 0.05% trypsin-EDTA. The cells were trypsinized after removing all media, then washed with 1* sterile D-PBS and then with 2 ml 0.05% trypsin-EDTA. The cells were then incubated at RT for one minute. Then 10 ml/75 cm2 flask Assay Medium was added to each flask. Using a 10 ml pipette, the cells were then gently resuspended in the media, until the clumps completely disappeared. The cells were then transferred into 50 ml centrifuge tubes and were centrifuged at 800 rpm for 5 mins. The medium was removed and the cells were resuspended with Assay Medium. An aliquot of cells was used to count the cell density (cells/ml). The cell suspension was then diluted with Assay Medium to a concentration of 6×10^4 cells/ml. 50 ul cells suspension was then plated to 384-well plate (PerkinElmer-6007480), 3×10^3 cells/well and the cells were incubated in an incubator at 37° C., 5% CO2.
Compound Treatment: In the afternoon (incubation of the plate with 3-4 hrs), the test compounds were added by Echo, starting from 3 uM (final concentration in the assay plate), 1:3 dilution, 10 points, quadruplicates. The plate was placed at 37° C., 5% CO2 incubator for 24 hrs.
Detection: The Dual-Glo Luciferase Reagent was prepared by transferring the contents of one bottle of Dual-Glo Luciferase Buffer to one bottle of Dual-Glo Luciferase Substrate to create the Dual-Glo Luciferase Reagent. Mixing was performed by inversion until the substrate was thoroughly dissolved. After mixing, the reagent was aliquoted into 15 ml tubes. In the afternoon (24 hrs post compound treatment), the DMEM+ medium in the 384 well plates were aspirated by Microplate Washer.
Measuring firefly luciferase activity: 20 ul Dual-Glo Luciferase Reagent was added to the 384-well plates. The plates were protected from light to prevent interference with the assay. The plates were shaken for 1 min followed centrifuging plates at 1000 rpm for 30 seconds. After waiting at least 10 minutes, the firefly luminescence was measured by Envision.
Measuring renilla luciferase activity: 20 ul Stop-Glo Reagent was added to the 384-well plates. The plates were shaken for 1 min and then centrifuged at 1000 rpm for 30 seconds. After waiting at least 10 minutes, the renilla luminescence was measured by Envision.
Compound IC50 and maximum inhibition on the firefly luciferase and renilla luciferase activities were reported separately.
On the technique in general: Reporter assays use an easily measured gene product as a stand-in for the process of interest.
On to `CNS(=O)(=O)c1ccc(NC2CCCCC2)c(-c2ncccc2C)c1` [Compound 78, 4-(cyclohexylamino)-N-methyl-3-(3-methylpyridin-2-yl)benzenesulfonamide], for which the IC50 was over 3 µM.
Then `CNS(=O)(=O)c1ccc(NC2CCCCC2)c(-c2nnn(C3CCN(C(=O)OC(C)(C)C)CC3)n2)c1` [Compound 28, tert-butyl 4-(5-(2-(cyclohexylamino)-5-(N-methylsulfamoyl)phenyl)-2H-tetrazol-2-yl)piperidine-1-carboxylate], with over 3 µM; and `CNS(=O)(=O)c1ccc(N[C@H]2CC[C@H](C(F)(F)F)CC2)c(-c2cn(C)cn2)c1` [Compound 151, N-methyl-3-(1-methyl-1H-imidazol-4-yl)-4-(((1r,4r)-4-(trifluoromethyl)cyclohexyl)amino) benzenesulfonamide], with at most 0.1 µM.
As for `CNS(=O)(=O)c1ccc(NC2CCCCC2)c(-c2nnn(Cc3ccc(F)cc3)n2)c1` [Compound 41, 4-(cyclohexylamino)-3-(2-(4-fluorobenzyl)-2H-tetrazol-5-yl)-N-methylbenzenesulfonamide], the IC50 was in the range of 0.1 to 1 µM.
As for `CNS(=O)(=O)c1ccc(NC2CCCCC2)c(-c2nnn(C3CN(C(C)=O)C3)n2)c1` [Compound 49, 3-(2-(1-acetylazetidin-3-yl)-2H-tetrazol-5-yl)-4-(cyclohexylamino)-N-methylbenzenesulfonamide], the figure is 0.1 to 1 µM.
With `CNS(=O)(=O)c1ccc(NC2CCCCC2)c(-c2nnn(C3CCN(c4cccnc4)C3)n2)c1` (stereo not drawn) [Compound 68, 4-(cyclohexylamino)-N-methyl-3-(2-(1-(pyridin-3-yl)pyrrolidin-3-yl)-2H-tetrazol-5-yl)benzenesulfonamide], the IC50 lay in the range of 0.1 to 1 µM.
Then `CNS(=O)(=O)c1ccc(NC2CCCCC2)c(-c2nnn(C(C)C)n2)c1` [Compound 26, 4-(cyclohexylamino)-3-(2-isopropyl-2H-tetrazol-5-yl)-N-methylbenzenesulfonamide], with at most 0.1 µM; and `CNS(=O)(=O)c1ccc(Nc2ccccc2OC(F)(F)F)c(-c2nnn(C)n2)c1` [Compound 102, N-methyl-3-(2-methyl-2H-tetrazol-5-yl)-4-((2-(trifluoromethoxy)phenyl)amino)benzenesulfonamide], with over 3 µM.
Turning to `CNS(=O)(=O)c1ccc(NC2CCCCC2)c(-c2cccc(N(C)C)n2)c1` [Compound 83, 4-(cyclohexylamino)-3-(6-(dimethylamino)pyridin-2-yl)-N-methylbenzenesulfonamide], the IC50 is over 3 µM.
As for `CNS(=O)(=O)c1ccc(Nc2ccc(C(F)(F)F)cc2)c(-c2nnn(Cc3ccccc3F)n2)c1` [Compound 137, 3-[2-[(2-Fluorophenyl)methyl]tetrazol-5-yl]-N-methyl-4-[4-(trifluoromethyl)anilino]benzene-sulfonamide], the figure is at most 0.1 µM; as for `CNS(=O)(=O)c1ccc(NC2CCCCC2)c(-c2nnn(C3CN(C(=O)OC(C)(C)C)C3)n2)c1` [Compound 25, tert-butyl 3-(5-(2-(cyclohexylamino)-5-(N-methylsulfamoyl)phenyl)-2H-tetrazol-2-yl)azetidine-1-carboxylate], over 3 µM.
Then `CNS(=O)(=O)c1ccc(Nc2ccc(Oc3ccccc3)cc2)c(-c2nnn(C)n2)c1` [Compound 130, N-methyl-3-(2-methyltetrazol-5-yl)-4-(4-phenoxyanilino) benzenesulfonamide], with 1 to 3 µM.
Then `CNS(=O)(=O)c1ccc(NC2CCCCC2)c(-c2nnn(C3CN(S(C)(=O)=O)C3)n2)c1` [Compound 50, 4-(cyclohexylamino)-N-methyl-3-(2-(1-(methylsulfonyl)azetidin-3-yl)-2H-tetrazol-5-yl)benzenesulfonamide], with over 3 µM.
`CNS(=O)(=O)c1ccc(NC2CCCCC2)c(-c2nnn(C3CC3)n2)c1` [Compound 71, 4-(cyclohexylamino)-3-(2-cyclopropyl-2H-tetrazol-5-yl)-N-methylbenzene sulfonamide]: the IC50 was over 3 µM.
As to `CNS(=O)(=O)c1ccc(NC2CCCCC2)c(-c2nnn(C3CCCN(C(=O)OC(C)(C)C)C3)n2)c1` (stereo not drawn) [Compound 59, tert-butyl 3-(5-(2-(cyclohexylamino)-5-(N-methylsulfamoyl)phenyl)-2H-tetrazol-2-yl)piperidine-1-carboxylate], the IC50 fell in the range of 0.1 to 1 µM.
As to `CNS(=O)(=O)c1ccc(NC2CCCCC2)c(-c2nnn(C3CN(c4ccccc4)C3)n2)c1` [Compound 51, 4-(cyclohexylamino)-N-methyl-3-(2-(1-phenylazetidin-3-yl)-2H-tetrazol-5-yl)benzenesulfonamide], the IC50 is over 3 µM.
As for `CNS(=O)(=O)c1ccc(NC2CCCCC2)c(-c2nnn(C3CCCN(S(C)(=O)=O)C3)n2)c1` (stereo not drawn) [Compound 62, 4-(cyclohexylamino)-N-methyl-3-(2-(1-(methylsulfonyl)piperidin-3-yl)-2H-tetrazol-5-yl)benzenesulfonamide], the figure is over 3 µM; as for `CNS(=O)(=O)c1ccc(Nc2ccc(C(F)(F)F)cc2)c(-c2nnn(CCO)n2)c1` [Compound 116, 3-(2-(2-hydroxyethyl)-2H-tetrazol-5-yl)-N-methyl-4-((4-(trifluoromethyl)phenyl)amino)benzenesulfonamide], at most 0.1 µM; as for `CNS(=O)(=O)c1ccc(NC2CCCCC2)c(-c2cn(C)nn2)c1` [Compound 58, 4-(cyclohexylamino)-N-methyl-3-(1-methyl-1H-1,2,3-triazol-4-yl)benzenesulfonamide], at most 0.1 µM.
Then `CNS(=O)(=O)c1ccc(NC2CCCCC2)c(-c2ccn(C)n2)c1` [Compound 57, 4-(cyclohexylamino)-N-methyl-3-(1-methyl-1H-pyrazol-3-yl)benzenesulfonamide], with at most 0.1 µM.
As for `Cn1nnc(-c2cc(S(C)(=O)=O)ccc2NC2CCCCC2)n1` [Compound 5, N-cyclohexyl-2-(2-methyl-2H-tetrazol-5-yl)-4-(methylsulfonyl)aniline], the figure is 0.1 to 1 µM.
For the compound `CNS(=O)(=O)c1ccc(NC2CCCCC2)c(-c2ccncn2)c1` [Compound 69, 4-(cyclohexylamino)-N-methyl-3-(pyrimidin-4-yl)benzenesulfonamide], the IC50 was in the range of 0.1 to 1 µM.
As for `CS(=O)(=O)c1ccc(NC2CCCCC2)c(-n2cccn2)c1` [Compound 10, N-cyclohexyl-4-(methylsulfonyl)-2-(1H-pyrazol-1-yl)aniline], the figure is 1 to 3 µM; as for `CNS(=O)(=O)c1ccc(Nc2ccc(C(F)(F)F)cc2)c(-c2nnn(C)n2)c1` [Compound 95, N-methyl-3-(2-methyl-2H-tetrazol-5-yl)-4-((4-(trifluoromethyl)phenyl)amino)benzenesulfonamide], at most 0.1 µM; as for `CNS(=O)(=O)c1ccc(Nc2ccc(C(F)(F)F)c(Cl)c2)c(-c2cn(C)cn2)c1` [Compound 148, 4-[3-Chloro-4-(trifluoromethyl)anilino]-N-methyl-3-(1-methylimidazol-4-yl)benzenesulfonamide], at most 0.1 µM.
On to `CNS(=O)(=O)c1ccc(Nc2cccc(F)c2)c(-c2nnn(C)n2)c1` [Compound 117, 4-((3-fluorophenyl)amino)-N-methyl-3-(2-methyl-2H-tetrazol-5-yl)benzenesulfonamide], for which the IC50 lay in the range of 0.1 to 1 µM.
Then `CS(=O)(=O)c1ccc(NC2CCCCC2)c(-n2nccn2)c1` [Compound 13, N-cyclohexyl-4-(methylsulfonyl)-2-(2H-1,2,3-triazol-2-yl)aniline], with 0.1 to 1 µM.

For the origin of these results see patent US11192865B2, “Benzosulfonyl compounds” (Vivace Therapeutics, Inc., priority 2017, dated 2021).
